Entries after “also recorded” stand apart in the source; their conditions may differ. Read-outs that look alike come from different tables or passages of the source.
What was measured:
A498 and RCC068 = assay: Long-term culture of renal cell carcinoma cell lines in the presence of TKIs; type: cell-based, human; settings: 13 μM sorafenib, 14 d time point, cells harvested after 10 days
Procedure: The human renal cell carcinoma cell lines A498 and RCC068 were cultured in RPMI medium (5% FCS (Biochrom, Berlin, Germany), 5% HS (PromoCell, Heidelberg, Germany)). […] For each time point 3 flasks of each cell line were prepared by containing either 0.1% DMSO alone as a control, 13 μM sorafenib (8.3 μg/ml sorafenib tosylate)+0.1% DMSO, or 250 nM sunitinib (133 ng/ml sunitinib malate).
A normal medium control sample containing neither DMSO nor TKIs was harvested at 1 h for each cell line.

C57BL/6 T cells = assay: Mouse mixed lymphocyte reaction (CFSE-labeled C57BL/6 spleen cells vs irradiated BALB/c splenocytes); type: cell-based; settings: for Cell morphology in flow cytometry (putatively toxic effects): 13 μM sorafenib
Procedure: CFSE-labeled spleen cells from C57BL/6 (H2-b) mice were co-cultured with irradiated splenocytes from BALB/c (H2-d) mice, resulting in the strong allogenic response and proliferation of the C57BL/6 T cells against H2-d MHC molecules. The proliferation of the T cells results in a diminished CFSE staining of the divided cells. Percentage of divided cells and their number of divisions can be analyzed by flow cytometry.
Spleen cells were prepared from 1 C57BL/6 mouse and 1 BALB/c mouse (Harlan Winkelmann GmbH, Borchen, Germany). BALB/c cells were irradiated with 33 Gy. Effectors (C57BL/6) were adjusted to 20 Mio cells/ml. A 2 mM 5(6)-Carboxyfluorescindiacetate-N-succinimidylester (CFSE, Fluka, Buchs, Switzerland) solution in PBS was freshly prepared from a 10 mM DMSO stock solution. The cell suspension was mixed 1:1 with the CFSE solution. After incubation at 37° C. for 4 min, reaction was stopped by addition of fetal calf serum (Biochrom, Berlin, Germany), and free CFSE was washed out. 2×10^5 stimulator cells (BALB/c) were plated into cavities of a 96-well round-bottom plate. 1×10^5 or 2×10^5 CFSE-labeled effector cells and tyrosine kinase inhibitors at two different concentrations were added. Appropriate positive and negative controls were included. All cultures were in 200 μl T-cell medium with 0.1% (v/v) DMSO for 5 or 7 days without further medium change. Thereafter, cells were stained with fluorescently labelled anti-CD4-PerCP and anti-CD8-FITC antibodies (both BD Biosciences, Heidelberg, Germany) and analyzed by flow cytometry.
The experiment described above was repeated with the exception that a 96-well flat-bottom plate was used for mixed lymphocyte reactions (MLRs), a syngenic control with irradiated C57BL/6 cells was included, more concentrations of inhibitors were assessed, and all groups were analyzed in triplicates.
During cultivation, half of the medium was replaced with fresh appropriate medium supplemented with final concentrations of tyrosine kinase inhibitors every day, and proliferation was analyzed at day 7 only. Additionally cells were stained for H2-Kb to clearly identify effector cells in a further dimension.

[1] = tested on: HLA-A*02+ PBMCs (CD4+ and CD8+ effector cells); settings: absence of target cells or autologous target cells
Procedure: Two fresh buffy coat (HLA-A*02+ and HLA-A*02−) were obtained from the Katharinenhospital Stuttgart. PBMCs were isolated by standard density gradient isolation and incubated overnight in T-cell medium (TCM) for human in vitro priming as in WP03 #4. Ca2+ and Mg2+ free PBS (Cambrex) washed HLA-A*02+ PBMCs were labeled at 1×10^7 cells/ml with 1 μM CFSE (Fluka, Buchs, Germany) at 37° C. for 4 minutes. Labeling was stopped by adding the same volume heat inactivated FCS (Invitrogen) and labeled cells were washed in TCM. Irradiation of target or feeder cells, if indicated, was performed at 33 Gy using a 1000 Elite gammacell (MDS Nordion, Ottawa, Canada). Stock solutions of sorafenib tosylate and sunitinib malate were prepared in DMSO (Merck, Darmstadt, Germany) and frozen aliquoted at −80° C. Mixed lymphocyte reactions were performed by coculturing 2×10^5 CFSE labeled effector plus 2×10^5 irradiated target cells as indicated per well of 96 well round bottom plates in 200 μl TCM in the presence of indicated concentrations of sorafenib, sunitinib or DMSO at 37° C. and 5% CO2 (day 1). On day 4, 100 μl supernatant was removed and 100 μl TCM supplemented with the original concentration of TKIs was added. […] Cells were washed, fixed in PFEA containing 1% formaldehyde (Fluka) and analyzed on a FACSCalibur (BD). […]

[2] = tested on: OVA-001 specific CD8+ T-cells; type: in vivo, C57BL/6 mice; settings: continuous treatment; for OVA-001 specific CD8+ T-cells, mean: OVA-001 immunized; for Immune response towards OVA-001 compared with vehicle treated controls (in words): both sorafenib dosages, high-dose (80 mg/kg bw) sunitinib, 80 mg/kg
[3] = tested on: OVA-001 specific CD8+ T-cells; type: in vivo, C57BL/6 mice
[4] = HPLC quantification of TKI plasma levels in mouse models; type: in vivo; settings: oral dosing
Procedure: The proteins were precipitated with 40 μl 100% acetonitril (Acros, Geel, Belgium), centrifuged and filtered through a 0.2 μm PVDF filter. 10 μl was directly injected to the HPLC system.
The HPLC system consisted of a Binary HPLC pump (Shimadzu LC10aVP), a Shimadzu SIL-10aVP autosampler, a Shimadzu CTO-10asVP column oven and a Shimadzu SPD10aVP detector. Data acquisition and analysis was performed using the Shimadzu Class-VP 7.3 software. Chromatographic separation was carried out on a reverse phase C18 column (Reprosil Pur ODS-3μ, 60×2 mm). To protect the analytical column a guard column has been used (Reprosil Pur ODS-5μ, 10×2 mm). Eluent A consisted of water (LCMS grade, Acros, Geel, Belgium), modified by 0.1% formic acid (Merck, Darmstadt, Germany) and eluent B was 80% acetonitril (Acros, Geel, Belgium) with 0.1% formic acid (Merck, Darmstadt, Germany).
The following gradient was used: 5 min 25% eluent B, 15 min 62.5% eluent B, 6 min 80% eluent B and 5 min 80% eluent B. The temperature of the autosampler was kept at 4° C. The temperature of the column was maintained at 30° C. The detection wavelength was set at 400 nm, the injection volume was 10 μl. The column was equilibrated with the mobile phase at a flow rate 0.5 ml/min.
For Sorafenib analysis, 10 μl of 50% acetonitril (Acros, Geel, Belgium) was added to 50 serum or medium in 0.5 ml PCR tubes and mixed for 10 seconds. […]

A498 tumor cells = settings: A498, 24 h; 13 μM sorafenib or 250 nM sunitinib; normal medium control = 100%

## CNC(=O)c1cc(Oc2ccc(NC(=O)Nc3ccc(Cl)c(C(F)(F)F)c3)cc2)ccn1 [Sorafenib, 4-(4-{3-[4-Chloro-3-(trifluoromethyl)phenyl]ureido}phenoxy)-N-methylpyrid-ine-2-carboxamide]
A498 and RCC068
  Cell growth in culture: prevented cell growth
C57BL/6 T cells
  CD4+ T-cell proliferation in response to allogenic stimuli (summary): increased
  CD8+ T-cell proliferation in response to allogenic stimuli (summary): slightly decreased; also recorded: slightly reduced
C57BL/6 T cells; first experiment, 1.3 μM sorafenib
  CD8 proliferation: only slightly affected
C57BL/6 T cells; first experiment
  Cell morphology in flow cytometry (putatively toxic effects): different morphology
C57BL/6 T cells; first experiment, listed as sorafenib
  Cell morphology in flow cytometry (putatively toxic effects): clear change in morphology
C57BL/6 T cells; second experiment
  Level inducing toxic effects (dramatically changed morphology of cells in flow cytometry): ≥ 6.5 μM
C57BL/6 T cells; second experiment, 6.5 or 13 μM Sorafenib
  Cell morphology (toxic effects of the drug): severe changes in morphology
C57BL/6 T cells; second experiment, day 7
  CD8+ proliferation: slight decrease
C57BL/6 T cells; second experiment, day 7, 1.6 μM sorafenib
  Proliferation of CD4+ cells: significant increase
C57BL/6 T cells; sorafenib: at concentration near the steady-state plasma level of treated patients
  Drug-related toxicity for cells in mixed lymphocyte reactions (summary): toxic
[1]
  Baseline proliferation of effector cells: did not increase
[2]; 15 mg/kg bw, n=4
  OVA-001 specific CD8+ T-cells, mean: 0.72%
[2]; 60 mg/kg bw, n=12
  OVA-001 specific CD8+ T-cells, mean: 1.81%
[2]
  Immune response towards OVA-001 compared with vehicle treated controls (in words): reduced specific T-cell responses
[2]; listed as sorafenib
  Immune response towards OVA-001 compared with vehicle treated controls (in words): reduced immune response
[3]; mouse, in vivo
  Reversibility of the immunosuppressive influence after discontinuation of treatment: rapidly reversed
[3]; treatment stopped 48 h before first immunization, 80 mg/kg bw sunitinib, both sorafenib dosages, differences not significant
  Numbers of OVA-001-specific T-cells: Reduced numbers
[4]
  Bioavailability / plasma levels at the used doses: confirmed to reach plasma levels shown by others to be effective in tumor growth inhibition
A498 tumor cells
  % Expression relative to control: ADFP: 100%
  % Expression relative to control: APOL1: 71%
  % Expression relative to control: CCND1: 81%
  % Expression relative to control: GUCY1A3: 44%
  % Expression relative to control: HLA-A: 100%
  % Expression relative to control: HLA-B: 87%
  % Expression relative to control: HLA-C: 87%
  % Expression relative to control: MET: 62%
  % Expression relative to control: MMP7: 25%
  % Expression relative to control: MUC1: 107%
  % Expression relative to control: PSMB8: 87%
  % Expression relative to control: PSMB9: 123%
  % Expression relative to control: TAP1: 123%

— patent US9308244B2, “Combination therapy using active immunotherapy” (immatics Biotechnologies GmbH, priority 2007, dated 2016)
